# Columns and labels:
# [1] = Competition ELISA for bovine OPN in plasma of mice fed with OPN; type: in vivo; settings: mice fed 50 mg of OPN over 10-30 minutes
# Experimental: In a previous experiment the inventors have detected osteopontin peptides in the plasma of mice fed with OPN using a competition ELISA for bovine OPN: the assay was designed to detect any peptides that can block interaction of intact bovine OPN with the polyclonal antibody used. Plasma from mice fed 50 mg of OPN over 10-30 minutes was analyzed using this ELISA. Peak antibody reactivity was detected at 1-4 hours after feeding, with the highest mean levels being close to 5000 ng/ml.
# [2] = tested on: 275-3-2 murine ras-transformed fibroblast cells; assay: Oral administration of osteopontin to 129B6F1 tumor-bearing mice; type: in vivo; settings: for size of the tumor: FIG. 1b
# Experimental: A bovine OPN preparation (Lacprodan®, Arla Foods Ingredients, Viby, Denmark) was dissolved in deionized water, filtered, and administered at final concentrations of 0.03, 0.12, or 0.3 mg/ml to 129B6F1 tumor-bearing mice starting either on the day of tumor cell inoculation (Day 0) or five days later (Day 5). The mice were initially inoculated with 5×10^4 mycoplasma-free 275-3-2 murine ras-transformed fibroblast cells (see Wu 2000). Tumor size was measured with calipers and monitored until the tumors reached 20% of the body weight of the animals, at which time the mice were sacrificed and tissue/plasma samples collected. Statistical significance was calculated using one-way ANOVA with Bonferroni post-test.
substance,measurement,setting,value
"OPN: bovine OPN preparation (Lacprodan®, Arla Foods Ingredients, Viby, Denmark)",highest mean plasma levels (immunoreactive OPN peptides),[1],~5000 ng/mL
same,time of peak antibody reactivity in plasma after feeding,[1],1 to 4 h
same,size of the tumor,"[2]; oral OPN 0.12 mg/ml started five days after tumor cell injection, at 15 days",statistically significant decrease
same,size of the tumor,"[2]; oral OPN 0.3 mg/ml started five days after tumor cell injection, at 17 days",statistically significant decrease
same,effect on the size of the tumors,"[2]; oral OPN in drinking water started at the time of tumor injection (Day 0), up to 17 days, FIG. 1A",no significant effect
same,most effective dose of OPN preparation,"[2]; oral dosing experiments, 0.03, 0.12, 0.3 mg/ml, highest dose used",0.3 mg/mL
same,effect of treatment on mouse weight,"[2]; oral, about 1.5 mg protein administered",nor is there any effect
